Measured values taken from patent publication US10947598B2, “Methods for determining the metabolic status of lymphomas” (INSERM (Institut National de la Sante et de la Recherche …, priority 2015, dated 2021).
“Also recorded” adds a separate entry of the source.

Experiments:
[1] = system: Eμ-Myc cells (mouse primary B lymphoma cells), gapdh^low vs gapdh^high; test: Cell death assay (DAPI staining, flow cytometry); type: cell-based
Method: C57BL/6 Eμ-Myc transgenic mice were purchased from the Jackson Laborator.
Eμ-Myc cells (0.2×10^6) were seeded in 96 well-plates in the presence or absence of 200 μM of phenformin (Sigma) for 24 hours and 48 hours. Cells were then labeled with DAPI (Molecular Probes; 0.5 μg/mL) and analyzed immediately by flow cytometry using a MACSQuant Analyzer (Miltenyi Biotec).

[2] = system: Eμ-Myc cells (mouse primary B lymphoma cells), gapdh^low vs gapdh^high; test: Proliferation assay (proliferation index, DAPI exclusion); type: cell-based; conditions: phenformin 50 μM, 24 and 48 hours
Method: Mouse primary Eμ-Myc clones (B lymphoma cells) obtained from lymphomas of different C57BL/6 Eμ-Myc transgenic mice were isolated as described previously (Lindemann et al., 2007) and maintained in DMEM supplemented with 10% FCS, 2-mercaptoethanol (50 μM), L-asparagin (0.37 mM) and HEPES (pH 7.4, 10 mM). C57BL/6 Eμ-Myc transgenic mice were purchased from the Jackson Laborator.
Eμ-Myc cells (0.2×10^6) were seeded in 96 well-plates in the presence or absence of 50 μM of Phenformin for 0, 24 and 48 hours. Number of living and dead cells was counted using DAPI staining exclusion by flow cytometry (MACSQuant Analyser, Miltenyi Biotec). Proliferation index were calculated by dividing the number of living cells obtained for each day by the one obtained the day of seeding (day 0).

[3] = system: Eμ-Myc-gapdh^low lymphoma; test: Animal study: lymphoma transfer of Eμ-Myc-gapdh^low cells into syngeneic C57BL/6 mice; type: in vivo, mouse; conditions: Eμ-Myc-gapdh^low-bearing mice; 200 mg/kg/day phenformin in drinking water for 12 days; FIG. 5
Method: Lymphoma transfer of a isolated Eμ-Myc clone was realized into syngeneic, nontransgenic, 6-week-old C57BL/6 females by tail vein injection of 0.1×10^6 viable Eμ-Myc lymphoma cells per recipient mouse (in 150 μL of sterile PBS). Phenformin treated group received 200 mg/kg/day phenformin in the drinking water for 12 days. Phenformin powder was dissolved every two days in the drinking water, taking into account the mouse body weight and the volume of water consumed each day. Untreated mice (controls) received water (n=10 mice/group). Food was given ad libitum. The first signs of the pathology were determined by inguinal lymph node palpation and analyses of blood sample with Hemavet 950FS (Drew Scientific, INC, France). Progression-free survival was determined by the time between the iv injection of the cell and the appearance of enlarged lympho nodes. Lymphoma-bearing animals were killed by cervical dislocation as soon as they presented signs of illness. Upon sacrifice all lymph node tumors and spleen are immediately collected and weighted. All mice were maintained in specific pathogen-free conditions and experimental procedures were approved by the Institutional Animal Care and Use Committee and by the regional ethics committee (PEA232 from Comité Institutionnel d'Ethique Pour l'Animal de Laboratoire—AZUR).

For `[H]/N=C(/N)N/C(=N/[H])NCCc1ccccc1` [phenformin], the “Sensitivity to phenformin (cell death)” value ([1]; Eμ-Myc-gapdh^high cells silenced for gapdh (shgapdh) vs control, phenformin 100 μM, 24 and 48 hours, FIG. 4A) was “more sensitive; also recorded: sensitizes”, the “Sensitivity to phenformin (cell death)” value ([1]; Eμ-Myc-gapdh^low vs Eμ-Myc-gapdh^high clones, phenformin 200 μM, 24 hours, FIG. 3A) was “more sensitive” and the “Sensitivity to phenformin (proliferation index)” value ([2]; Eμ-Myc-gapdh^high cells silenced for gapdh (shgapdh) vs control, FIG. 4B) was “more sensitive”. The “Sensitivity to phenformin (proliferation index)” value ([2]; Eμ-Myc-gapdh^low vs Eμ-Myc-gapdh^high clones, FIG. 3B) was “more sensitive” and the “B lymphoma progression (progression-free survival, size of axillary lymphomas and spleen)” value [3] was “reduced”.
With L-asparaginase the “Sensitivity to L-asparaginase (cell death)” value ([1]; Eμ-Myc-gapdh^high cells silenced for gapdh (shgapdh) vs control, L-asparaginase 0.3 UI/ml, 24 hours, FIG. 4C) was “more sensitive; also recorded: sensitizes” and the “Sensitivity to L-asparaginase (cell death)” value ([1]; Eμ-Myc-gapdh^low vs Eμ-Myc-gapdh^high clones, L-asp 0.3 UI/ml, 1.0 UI/ml, 24 hours, FIG. 3C) was “more sensitive”.
